PubChem BioAssay (NCI)
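Method: 48-hour compound exposure of cells in 96-well plates, five concentrations, linear interpolation of endpoints. Abbreviation: GI50, concentration required for 50% inhibition of growth. At the TGI there is no net growth.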

What was measured:
Experiment in all cases: NCI-60 cell line screen, 48 h
HS 578T breast = system: HS 578T breast
HOP-62 NSCLC = system: HOP-62 NSCLC
SNB-19 CNS = system: SNB-19 CNS
OVCAR-8 ovarian = system: OVCAR-8 ovarian
NCI-H460 lung = system: NCI-H460 lung
A549 NSCLC = system: A549 NSCLC
HCT-15 colon = system: HCT-15 colon
MCF7 breast = system: MCF7 breast
HL-60(TB) leukemia = system: HL-60(TB) leukemia
HT29 colon = system: HT29 colon
NCI-H226 lung = system: NCI-H226 lung
U251 CNS = system: U251 CNS
COLO 205 colon = system: COLO 205 colon
NCI-H23 lung = system: NCI-H23 lung
BT-549 breast = system: BT-549 breast
SN12C renal = system: SN12C renal
ACHN renal = system: ACHN renal
CAKI-1 renal = system: CAKI-1 renal
RXF 393 renal = system: RXF 393 renal
CCRF-CEM leukemia = system: CCRF-CEM leukemia
HCT-116 colon = system: HCT-116 colon
KM12 colon = system: KM12 colon
IGROV1 ovarian = system: IGROV1 ovarian
NCI-H522 lung = system: NCI-H522 lung
HCC-2998 colon = system: HCC-2998 colon
UO-31 renal = system: UO-31 renal
SF-539 CNS = system: SF-539 CNS
SW-620 colon = system: SW-620 colon
UACC-257 melanoma = system: UACC-257 melanoma
UACC-62 melanoma = system: UACC-62 melanoma
MOLT-4 leukemia = system: MOLT-4 leukemia
M14 melanoma = system: M14 melanoma
OVCAR-3 ovarian = system: OVCAR-3 ovarian
T-47D breast = system: T-47D breast
MDA-MB-231 breast = system: MDA-MB-231 breast
SK-MEL-28 melanoma = system: SK-MEL-28 melanoma
SF-295 CNS = system: SF-295 CNS
MDA-MB-435 = system: MDA-MB-435
SK-MEL-2 melanoma = system: SK-MEL-2 melanoma
HOP-92 NSCLC = system: HOP-92 NSCLC
RPMI-8226 leukemia = system: RPMI-8226 leukemia
K-562 leukemia = system: K-562 leukemia
A498 renal = system: A498 renal
SK-MEL-5 melanoma = system: SK-MEL-5 melanoma
EKVX NSCLC = system: EKVX NSCLC
SF-268 CNS = system: SF-268 CNS
DU-145 prostate = system: DU-145 prostate
PC-3 prostate = system: PC-3 prostate
NCI/ADR-RES ovarian = system: NCI/ADR-RES ovarian
TK-10 renal = system: TK-10 renal
OVCAR-5 ovarian = system: OVCAR-5 ovarian
786-0 renal = system: 786-0 renal
LOX IMVI melanoma = system: LOX IMVI melanoma
MALME-3M melanoma = system: MALME-3M melanoma
SNB-75 CNS = system: SNB-75 CNS
OVCAR-4 ovarian = system: OVCAR-4 ovarian
SR leukemia = system: SR leukemia
SK-OV-3 ovarian = system: SK-OV-3 ovarian

`COc1cc(/C=C2\CC3C4CC=C5C[C@@H](N6CCCC6)CC[C@]5(C)C4CC[C@]3(C)[C@H]2OC(C)=O)ccc1OCCCn1ccnc1` (stereo partly specified) gave a GI50 (HS 578T breast) of 5.76 µM, a TGI (HS 578T breast) of 16.4 µM and a GI50 (HOP-62 NSCLC) of 0.435 µM. The TGI (HOP-62 NSCLC) was 1.08 µM, the GI50 (SNB-19 CNS) was 1.46 µM and the TGI (SNB-19 CNS) was > 50 µM. The GI50 (OVCAR-8 ovarian) was 0.774 µM, the TGI (OVCAR-8 ovarian) was 2.79 µM and the GI50 (NCI-H460 lung) was 0.531 µM. The TGI (NCI-H460 lung) was > 19.2 µM, the GI50 (A549 NSCLC) was 2.79 µM and the TGI (A549 NSCLC) was 10.3 µM. For the same molecule, the GI50 (HCT-15 colon) was 0.135 µM, the TGI (HCT-15 colon) was 0.483 µM and the GI50 (MCF7 breast) was 1.14 µM. For the same molecule, the TGI (MCF7 breast) was > 21.8 µM, the GI50 (HL-60(TB) leukemia) was 0.393 µM and the TGI (HL-60(TB) leukemia) was 1.31 µM. For the same molecule, the GI50 (HT29 colon) was 0.162 µM, the TGI (HT29 colon) was > 50 µM and the GI50 (NCI-H226 lung) was 10.3 µM. It also gave a TGI (NCI-H226 lung) of 21.9 µM, a GI50 (U251 CNS) of 0.0845 µM and a TGI (U251 CNS) of 0.164 µM. For the same molecule, the GI50 (COLO 205 colon) was 0.104 µM, the TGI (COLO 205 colon) was > 50 µM and the GI50 (NCI-H23 lung) was 4 µM. The TGI (NCI-H23 lung) was 7.96 µM, the GI50 (BT-549 breast) was 2.19 µM and the TGI (BT-549 breast) was 9.72 µM. For the same molecule, the GI50 (SN12C renal) was 1.24 µM, the TGI (SN12C renal) was 9.77 µM and the GI50 (ACHN renal) was 0.383 µM. It also gave a TGI (ACHN renal) of 1.09 µM, a GI50 (CAKI-1 renal) of 0.641 µM and a TGI (CAKI-1 renal) of 2.63 µM. It also gave a GI50 (RXF 393 renal) of 0.704 µM, a TGI (RXF 393 renal) of 2.08 µM and a GI50 (CCRF-CEM leukemia) of 1.22 µM. The TGI (CCRF-CEM leukemia) was 3.91 µM, the GI50 (HCT-116 colon) was 0.0938 µM and the TGI (HCT-116 colon) was 1.52 µM. It also gave a GI50 (KM12 colon) of 0.63 µM, a TGI (KM12 colon) of 4.02 µM and a GI50 (IGROV1 ovarian) of 8.12 µM. The TGI (IGROV1 ovarian) was > 50 µM, the GI50 (NCI-H522 lung) was 3.86 µM and the TGI (NCI-H522 lung) was > 27.5 µM. For the same molecule, the GI50 (HCC-2998 colon) was 0.178 µM, the TGI (HCC-2998 colon) was 0.568 µM and the GI50 (UO-31 renal) was 2.01 µM. The TGI (UO-31 renal) was > 50 µM, the GI50 (SF-539 CNS) was 0.196 µM and the TGI (SF-539 CNS) was 0.459 µM. The GI50 (SW-620 colon) was 0.232 µM, the TGI (SW-620 colon) was 1.21 µM and the GI50 (UACC-257 melanoma) was 2.29 µM. For the same molecule, the TGI (UACC-257 melanoma) was 5.27 µM, the GI50 (UACC-62 melanoma) was 0.63 µM and the TGI (UACC-62 melanoma) was 2.26 µM. The GI50 (MOLT-4 leukemia) was 0.206 µM, the TGI (MOLT-4 leukemia) was > 15.4 µM and the GI50 (M14 melanoma) was 0.304 µM. For the same molecule, the TGI (M14 melanoma) was 0.752 µM, the GI50 (OVCAR-3 ovarian) was 0.275 µM and the TGI (OVCAR-3 ovarian) was 0.777 µM. The GI50 (T-47D breast) was 2.19 µM, the TGI (T-47D breast) was > 50 µM and the GI50 (MDA-MB-231 breast) was 0.404 µM. For the same molecule, the TGI (MDA-MB-231 breast) was 1.01 µM, the GI50 (SK-MEL-28 melanoma) was 0.157 µM and the TGI (SK-MEL-28 melanoma) was > 50 µM. The GI50 (SF-295 CNS) was 1.21 µM, the TGI (SF-295 CNS) was 3.46 µM and the GI50 (MDA-MB-435) was 0.912 µM. For the same molecule, the TGI (MDA-MB-435) was 1.68 µM, the GI50 (SK-MEL-2 melanoma) was 7.54 µM and the TGI (SK-MEL-2 melanoma) was > 50 µM. It also gave a GI50 (HOP-92 NSCLC) of 6.09 µM, a TGI (HOP-92 NSCLC) of 17.7 µM and a GI50 (RPMI-8226 leukemia) of 0.343 µM. For the same molecule, the TGI (RPMI-8226 leukemia) was > 14 µM, the GI50 (K-562 leukemia) was 0.119 µM and the TGI (K-562 leukemia) was 0.36 µM. It also gave a GI50 (A498 renal) of 2.66 µM, a TGI (A498 renal) of 5.18 µM and a GI50 (SK-MEL-5 melanoma) of 0.373 µM. The TGI (SK-MEL-5 melanoma) was 0.79 µM, the GI50 (EKVX NSCLC) was 1.28 µM and the TGI (EKVX NSCLC) was 9.12 µM. The GI50 (SF-268 CNS) was 3.87 µM, the TGI (SF-268 CNS) was > 29.2 µM and the GI50 (DU-145 prostate) was 0.17 µM. For the same molecule, the TGI (DU-145 prostate) was 1.49 µM, the GI50 (PC-3 prostate) was 0.958 µM and the TGI (PC-3 prostate) was 8.41 µM. The GI50 (NCI/ADR-RES ovarian) was 5.35 µM, the TGI (NCI/ADR-RES ovarian) was 13.5 µM and the GI50 (TK-10 renal) was 0.479 µM. The TGI (TK-10 renal) was 1.48 µM, the GI50 (OVCAR-5 ovarian) was 7.15 µM and the TGI (OVCAR-5 ovarian) was 15.3 µM. The GI50 (786-0 renal) was 0.369 µM and the TGI (786-0 renal) was 1.38 µM.

For `COC(=O)/C=C1\C(=O)Nc2ccc(Br)cc21`, the TGI (HS 578T breast) was > 34.4 µM, the TGI (HOP-62 NSCLC) was 4.61 µM and the TGI (SNB-19 CNS) was 11.4 µM. For the same molecule, the TGI (OVCAR-8 ovarian) was 5.78 µM, the TGI (NCI-H460 lung) was 5.05 µM and the TGI (A549 NSCLC) was 12.3 µM. For the same molecule, the TGI (HCT-15 colon) was 2.81 µM, the TGI (MCF7 breast) was 3.01 µM and the TGI (LOX IMVI melanoma) was 2.25 µM. The TGI (HL-60(TB) leukemia) was 3.92 µM, the TGI (HT29 colon) was 3.68 µM and the TGI (NCI-H226 lung) was 4.03 µM. The TGI (MALME-3M melanoma) was 7.75 µM, the TGI (U251 CNS) was 4.73 µM and the TGI (COLO 205 colon) was 3.45 µM. For the same molecule, the TGI (NCI-H23 lung) was 3.52 µM, the TGI (BT-549 breast) was 3.88 µM and the TGI (SN12C renal) was 3 µM. The TGI (ACHN renal) was 3.36 µM, the TGI (CAKI-1 renal) was 3.87 µM and the TGI (RXF 393 renal) was 3.27 µM. It also gave a TGI (CCRF-CEM leukemia) of 1.17 µM, a TGI (SNB-75 CNS) of 3.87 µM and a TGI (OVCAR-4 ovarian) of 5.84 µM. It also gave a TGI (HCT-116 colon) of 2.64 µM, a TGI (KM12 colon) of 4.8 µM and a TGI (IGROV1 ovarian) of 3.63 µM. For the same molecule, the TGI (NCI-H522 lung) was 2.34 µM, the TGI (HCC-2998 colon) was 4.58 µM and the TGI (UO-31 renal) was 5.55 µM. For the same molecule, the TGI (SW-620 colon) was 3.22 µM, the TGI (UACC-257 melanoma) was 3.07 µM and the TGI (UACC-62 melanoma) was 3.2 µM. It also gave a TGI (MOLT-4 leukemia) of 4.01 µM, a TGI (M14 melanoma) of 6.03 µM and a TGI (OVCAR-3 ovarian) of 2.95 µM. For the same molecule, the TGI (T-47D breast) was 5.6 µM, the TGI (MDA-MB-231 breast) was 6.64 µM and the TGI (SK-MEL-28 melanoma) was 8.43 µM. For the same molecule, the TGI (SF-295 CNS) was 5.07 µM, the TGI (MDA-MB-435) was 4.76 µM and the TGI (SK-MEL-2 melanoma) was 1.77 µM. For the same molecule, the TGI (SR leukemia) was 1.56 µM, the TGI (HOP-92 NSCLC) was 4.92 µM and the TGI (RPMI-8226 leukemia) was 4.48 µM. The TGI (K-562 leukemia) was > 28 µM, the TGI (A498 renal) was 11.6 µM and the TGI (SK-MEL-5 melanoma) was 3.2 µM. For the same molecule, the TGI (EKVX NSCLC) was 4.49 µM, the TGI (SF-268 CNS) was 13.8 µM and the TGI (DU-145 prostate) was 4.38 µM. For the same molecule, the TGI (PC-3 prostate) was 2.82 µM, the TGI (NCI/ADR-RES ovarian) was 4.49 µM and the TGI (TK-10 renal) was 3.09 µM. The TGI (OVCAR-5 ovarian) was 3.17 µM, the TGI (786-0 renal) was 3.05 µM and the TGI (SK-OV-3 ovarian) was 10.1 µM.
